Data taken from paper PMC6154694, “Absorption, Metabolic Stability, and Pharmacokinetics of Ginger Phytochemicals” (Molecules : A Journal of Synthetic Chemistry and Natural …, 2017).

What was measured:
[1] = Mouse pharmacokinetic study of oral GE with and without ketoconazole, plasma with and without β-glucuronidase treatment; assay type: in vivo, male mice (C57BL6J); conditions: for Concentration Ratio (Total/Free) of GE Phenolics: GE administered group; for Concentration Ratio (Total/Free) of GE Phenolics / concentration at 0 h / concentration at 0.087 h / concentration at 0.167 h / concentration at 0.25 h / concentration at 0.5 h / concentration at 1 h / concentration at 2 h / concentration at 3 h / concentration at 4 h / concentration at 6 h / concentration at 8 h / concentration at 12 h: mouse plasma; for AUC(0-t) / Cmax / Tmax / concentration at 0 h / concentration at 0.087 h / concentration at 0.167 h / concentration at 0.25 h / concentration at 0.5 h / concentration at 1 h / concentration at 2 h / concentration at 3 h / concentration at 4 h / concentration at 6 h / concentration at 8 h / concentration at 12 h: male, C57BL6J; for AUC(0-t) / Cmax / Tmax: mouse, plasma, po, 250 mg/kg
Protocol: A solution formulation of GE was prepared by using 5% ethanol, 5% Tween 80, 40% polyethylene glycol, and 50% corn oil. The dose volume was 10 mL/kg and the dose administered was 250 mg/kg GE.
Pharmacokinetic study in male mice (C57BL6J, Harlan Laboratories, Indianapolis, IN, USA) was run with 36 animals in each group at a GE dose of 250 mg/kg with a dose volume of 10 mL/kg. One group was given GE alone and in the second group GE was co-administered with KTZ (50 mg/kg). A terminal sampling design was used to collect blood samples at 0 (pre-dose), 0.08, 0.16, 0.25, 0.5, 1, 2, 3, 4, 6, 8, and 12 h. At each time, 1 mL of blood was collected in ethylenediaminetetraacetic acid di-potassium salt (K2EDTA) tubes (BD Biosciences, Franklin Lakes, NJ, USA). Plasma was separated by centrifugation of samples at 4000 rpm for 10 min and stored below −60 °C till bioanalysis. All experiments were performed with approval from the Institutional Animal Care and Use Committee (IACUC, approval code: A14031). All animals were acclimatized for five days before dosing in the experimental area. Food and water was provided ad libitum throughout the study period. Animals were marked and housed (three per cage, n = 36 per group) in polypropylene cages and maintained in controlled environmental conditions with 12 h light and dark cycles. The temperature and humidity of the room was maintained between 22 ± 3 °C and 30% to 50%, respectively, and approximately 10–12 fresh air change cycles per hour.
To confirm the presence of GE glucuronide conjugates, plasma (100 μL) was treated with βgd (20 μL, 500 units) and incubated at 37 °C for 1 h. Each sample was analyzed twice with and without β-gd treatment. Samples without gde treatment were diluted with 20 μL of buffer. Total (conjugated + free) and free ginger phenolics data were reported following bioanalysis.
All in vitro and in vivo samples were processed by protein precipitation method. An aliquot (100 μL) of the sample was spiked with 200 μL of acetonitrile containing dihydrocapsaicin as internal standard (IS) and vortex mixed for 3 min. The tubes were centrifuged at 12,000 rpm for 10 min and an aliquot of supernatant was transferred into autosampler vials for analysis. The stock solutions of 6G, 8G, 10G, and 6S were prepared in ACN/water (70:30) at 1 mg/mL. A calibration curve (CC) range of 2–2000 ng/mL was employed for the quantification of analytes and IS concentration was 150 ng/mL for each analysis. The CC consisted of blank, blank with IS and seven non-zero calibration standards. The calibration standards were within ±15% of the nominal concentration and lower limit of quantification was within ±20% of nominal. All samples were analyzed using liquid chromatography tandem mass spectrometry (LC-MS/MS) method (Agilent 6410 series, Santa Clara, CA, USA). A positive ionization mode with multiple reaction monitoring (MRM, m/z Q1/Q3) of 6G (m/z 277.1/177.1, retention time (RT) 2.0 min), 8G (m/z 305.1/177.1, RT 4.0 min), 10G (m/z 333.1/177.1, RT 7.7 min), 6S (m/z 277.1/137.1, RT 5.1 min), and IS (m/z 308.2/137.1, RT 3.4 min) was employed. The ion spray voltage was set at 3500 V, ionization temperature was set to 300 °C and drying gas flow rate was 10 L/min. Data acquisition and quantitation were performed using Mass Hunter software (Agilent Technologies, Wilmington, DE, USA). Separation was achieved using HP1100 series LC (Agilent Technologies) with an Agilent Zorbax reversed-phase (SB-C18, 2.1 × 50 mm, 5.0 μm) column. A gradient method was employed to separate the individual GE phenolics using mobile phase A (0.1% formic acid in water) and mobile phase B (Acetonitrile). The gradient elution method with 50% B at 0 min, 90% B at 5 min, held for 2.1 min, back to 50% B at 7.1 min with a flow rate of 0.2 mL/min. An injection volume of 2 μL was used for analysis. […]

[2] = Liver microsomal stability, human; assay type: in vitro ADME; conditions: protein 0.5 mg/mL
Protocol: Pooled liver microsomes from CD1 mouse, IGS Sprague-Dawley rat, Beagle dog, and mixed gender human were used for assays. Incubations (1 mL) consisted of liver microsomes (0.5 mg/mL), NADPH (1 mM) and 100 mM sodium phosphate buffer (pH 7.4). Following pre-incubation (10 min, 37 °C), reactions were initiated by spiking ACN/DMSO (80:20) stock solutions of GE phenolics (5 μL, 10 μM). Samples (100 μL) were withdrawn at 0, 5, 10, 15, 20 and 30 min and quenched with 200 μL acetonitrile containing internal standard. Concomitant NADPH-free control incubations were prepared similarly.

[3] = 250 mg/kg GE + 50 mg/kg KTZ oral, +KTZ −βgd

For `CCCCCCCCCC(O)CC(=O)CCc1ccc(O)c(OC)c1` (centres unmarked) [10G, 10-gingerol], the “AUClast Ratio” value ([1]; +KTZ +βgd, reference GE group co-administered with KTZ untreated with βgd) was 11, the “AUClast Ratio” value ([1]; +KTZ +βgd, reference GE group untreated with βgd) was 32 and the “AUClast Ratio” value ([1]; +KTZ −βgd, reference GE group untreated with βgd) was 3. For the same compound, the “Concentration Ratio (Total/Free) of GE Phenolics” value (“Concentration Ratio (Total/Free)” for short) ([1]; 0 h) was 0, the “Concentration Ratio (Total/Free)” value ([1]; 0.087 h) was 5 and the “Concentration Ratio (Total/Free)” value ([1]; 0.167 h) was 11. For the same compound, the “Concentration Ratio (Total/Free)” value ([1]; 0.25 h) was 24, the “Concentration Ratio (Total/Free)” value ([1]; 0.5 h) was 13 and the “Concentration Ratio (Total/Free)” value ([1]; 1 h) was 8. For the same compound, the “Concentration Ratio (Total/Free)” value ([1]; 2 h) was 19, the “Concentration Ratio (Total/Free)” value ([1]; 3 h) was 9 and the “Concentration Ratio (Total/Free)” value ([1]; 4 h) was 9. The “Concentration Ratio (Total/Free)” value ([1]; 6 h) was 15, the “Concentration Ratio (Total/Free)” value ([1]; 8 h) was 0 and the “Concentration Ratio (Total/Free)” value ([1]; 12 h) was 0. The AUC(0-t) ([1]; 250 mg/kg GE oral, −βgd) was 61.8 ng·h/mL, the Cmax ([1]; 250 mg/kg GE oral, −βgd) was 56 ng/mL and the Tmax ([1]; 250 mg/kg GE oral, −βgd) was 30 min. For the same compound, the AUC(0-t) [1, 3] was 174 ng·h/mL, the Cmax [1, 3] was 79 ng/mL and the Tmax [1, 3] was 30 min. For the same compound, the concentration at 0 h ([1]; 250 mg/kg GE oral, 0 h, −βgd) was 0 ng/mL, the concentration at 0.087 h ([1]; 250 mg/kg GE oral, 0.087 h, −βgd) was 43.1 ± 35.3 ng/mL and the concentration at 0.167 h ([1]; 250 mg/kg GE oral, 0.167 h, −βgd) was 20.7 ± 6.15 ng/mL. For the same compound, the concentration at 0.25 h ([1]; 250 mg/kg GE oral, 0.25 h, −βgd) was 25.9 ± 4.43 ng/mL, the concentration at 0.5 h ([1]; 250 mg/kg GE oral, 0.5 h, −βgd) was 56 ± 31.6 ng/mL and the concentration at 1 h ([1]; 250 mg/kg GE oral, 1 h, −βgd) was 2.21 ± 0.62 ng/mL. The concentration at 2 h ([1]; 250 mg/kg GE oral, 2 h, −βgd) was 4.08 ± 1.61 ng/mL, the concentration at 3 h ([1]; 250 mg/kg GE oral, 3 h, −βgd) was 5.25 ± 1.06 ng/mL and the concentration at 4 h ([1]; 250 mg/kg GE oral, 4 h, −βgd) was 3.06 ± 1.19 ng/mL. The concentration at 6 h ([1]; 250 mg/kg GE oral, 6 h, −βgd) was 2.43 ± 1.16 ng/mL, the concentration at 8 h ([1]; 250 mg/kg GE oral, 8 h, −βgd) was 5.04 ± 5.89 ng/mL and the concentration at 12 h ([1]; 250 mg/kg GE oral, 12 h, −βgd) was 0.62 ± 0.72 ng/mL. For the same compound, the concentration at 0 h ([1]; 250 mg/kg GE with 50 mg/kg ketoconazole oral, 0 h, −βgd) was 0 ng/mL, the concentration at 0.087 h ([1]; 250 mg/kg GE with 50 mg/kg ketoconazole oral, 0.087 h, −βgd) was 0 ng/mL and the concentration at 0.167 h ([1]; 250 mg/kg GE with 50 mg/kg ketoconazole oral, 0.167 h, −βgd) was 5.66 ± 5.12 ng/mL. The concentration at 0.25 h ([1]; 250 mg/kg GE with 50 mg/kg ketoconazole oral, 0.25 h, −βgd) was 20.5 ± 21.6 ng/mL, the concentration at 0.5 h ([1]; 250 mg/kg GE with 50 mg/kg ketoconazole oral, 0.5 h, −βgd) was 14000 ng/mL and the concentration at 1 h ([1]; 250 mg/kg GE with 50 mg/kg ketoconazole oral, 1 h, −βgd) was 54.5 ± 58.3 ng/mL. It also gave a concentration at 2 h ([1]; 250 mg/kg GE with 50 mg/kg ketoconazole oral, 2 h, −βgd) of 27900 ng/mL, a concentration at 3 h ([1]; 250 mg/kg GE with 50 mg/kg ketoconazole oral, 3 h, −βgd) of 45.8 ± 48.2 ng/mL and a concentration at 4 h ([1]; 250 mg/kg GE with 50 mg/kg ketoconazole oral, 4 h, −βgd) of 6.52 ± 1.14 ng/mL. It also gave a concentration at 6 h ([1]; 250 mg/kg GE with 50 mg/kg ketoconazole oral, 6 h, −βgd) of 8.07 ± 5.96 ng/mL, a concentration at 8 h ([1]; 250 mg/kg GE with 50 mg/kg ketoconazole oral, 8 h, −βgd) of 3.71 ± 2.46 ng/mL and a concentration at 12 h ([1]; 250 mg/kg GE with 50 mg/kg ketoconazole oral, 12 h, −βgd) of 2.61 ± 1.41 ng/mL. For the same compound, the remaining at 0.5 h, 10 µM ([2]; both sexes, pooled liver microsomes, pH 7.4, substrate 10 µM, n = 2, read-out: % Remaining at 30 min) was 22% and the “Intrinsic Clearance” value ([2]; human liver microsomes, substrate 10 µM, 45 mg protein/g liver) was 6.7 mL/min/g Liver.
